Results as given in US20260191968A1, “PROTAC DEGRADERS OF MLLT1 AND/OR MLLT3” (DARK BLUE THERAPEUTICS LTD, priority 2024, published 2026).
pIC50: −log10 of the molar value.

How the values were obtained:
MLLT1 = target: T1, MLLT1 (Homo sapiens, UniProt Q03111); assay: MLLT1 degradation assay in MV4-11 cells (JESS chemiluminescent detection), three concentrations, 24 h; assay type: cell-based; conditions: with respect to DMSO control
T1 construct: host or cells: MV4-11
T1 sequence (Q03111 1-559): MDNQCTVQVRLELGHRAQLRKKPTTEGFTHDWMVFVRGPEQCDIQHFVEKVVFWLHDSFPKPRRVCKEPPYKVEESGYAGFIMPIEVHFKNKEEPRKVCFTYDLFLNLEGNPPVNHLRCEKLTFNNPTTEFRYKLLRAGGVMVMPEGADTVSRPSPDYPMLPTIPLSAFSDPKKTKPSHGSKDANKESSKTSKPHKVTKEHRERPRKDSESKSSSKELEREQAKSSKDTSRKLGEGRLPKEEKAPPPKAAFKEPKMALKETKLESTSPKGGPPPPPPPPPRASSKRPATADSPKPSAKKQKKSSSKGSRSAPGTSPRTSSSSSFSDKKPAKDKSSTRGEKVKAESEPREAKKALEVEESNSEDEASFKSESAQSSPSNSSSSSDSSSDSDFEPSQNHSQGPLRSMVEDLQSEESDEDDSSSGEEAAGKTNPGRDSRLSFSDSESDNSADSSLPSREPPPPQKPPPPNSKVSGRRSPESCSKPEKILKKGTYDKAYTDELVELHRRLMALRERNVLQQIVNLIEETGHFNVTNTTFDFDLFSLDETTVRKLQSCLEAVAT
Summary of the method: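 MV4-11 cells treated 24 h at 37° C, 5% CO2 with 1000, 100 and 10 nM compound (0.1% DMSO final). MLLT1 quantified by automated capillary chemiluminescent immunodetection; band peak area expressed as % degradation relative to DMSO control.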

MV4-11 cells = assay: MV4-11 cellular proliferative assay, Assay Format B (CTG 2.0, 168 h); assay type: cell-based; conditions: Homo sapiens, 168 h (7 days), CTG 2.0, read-out: IC50 (MV4-11 cellular proliferative assay, Assay format B)
Summary of the method: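 MV4-11 cells seeded overnight in IMDM + 10% FBS, then exposed to 10-point, 3-fold dilutions from 1 uM or 100 nM top concentration (0.3% DMSO final) for 168 h at 37 °C. CTG 2.0 luminescence read; % viability vs DMSO control fitted by four-parameter logistic regression.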

SMILES | MLLT1% Degradation @ 0.01 μM (MLLT1) | MLLT1% Degradation @ 0.1 μM (MLLT1) | MLLT1% Degradation @ 1 μM (MLLT1) | pIC50 (MV4-11 cells)
CN1CCC[C@@H]1c1cc2cnc(NC(=O)c3ccc(CCCC#Cc4cccc5c4CN(C4CCC(=O)NC4=O)C5=O)nc3)cc2[nH]1 (stereo partly drawn) [Example 12, 6-(5-(2-(2,6-dioxopiperidin-3-yl)-1-oxoisoindolin-4-yl)pent-4-yn-1-yl)-N-(2-((R)-1-methylpyrrolidin-2-yl)-1H-pyrrolo[3,2-c]pyridin-6-yl)nicotinamide] | B (Category B: 50% ≤ B < 75% degradation) | A (Category A: A ≥ 75% degradation) | A (Category A: A ≥ 75% degradation) | ≥ 7.00
CN1CCC[C@@H]1c1[nH]c2cc(NC(=O)CCCCCCC#Cc3cccc4c3CN(C3CCC(=O)NC3=O)C4=O)ncc2c1Cl (stereo partly drawn) [Example 13, N-(3-chloro-2-((R)-1-methylpyrrolidin-2-yl)-1H-pyrrolo[3,2-c]pyridin-6-yl)-9-(2-(2,6-dioxopiperidin-3-yl)-1-oxoisoindolin-4-yl) non-8-ynamide] | A (Category A: A ≥ 75% degradation) | A (Category A: A ≥ 75% degradation) | A (Category A: A ≥ 75% degradation) | ≥ 7.00
CN1CCC[C@@H]1c1cc2cnc(NC(=O)c3cccc(C4CCN(c5cccc6c5C(=O)N(C5CCC(=O)NC5=O)C6=O)CC4)c3)cc2[nH]1 (stereo partly drawn) [Example 14, 3-(1-(2-(2,6-dioxopiperidin-3-yl)-1,3-dioxoisoindolin-4-yl)piperidin-4-yl)-N-(2-((R)-1-methylpyrrolidin-2-yl)-1H-pyrrolo[3,2-c]pyridin-6-yl)benzamide] | B (Category B: 50% ≤ B < 75% degradation) | A (Category A: A ≥ 75% degradation) | A (Category A: A ≥ 75% degradation) | ≥ 7.00
CN1CCC[C@@H]1c1cc2cnc(NC(=O)c3ccc(N4CCC(CC#Cc5cccc6c5CN(C5CCC(=O)NC5=O)C6=O)CC4)nc3)cc2[nH]1 (stereo partly drawn) [Example 16, 6-(4-(3-(2-(2,6-dioxopiperidin-3-yl)-1-oxoisoindolin-4-yl)prop-2-yn-1-yl)piperidin-1-yl)-N-(2-((R)-1-methylpyrrolidin-2-yl)-1H-pyrrolo[3,2-c]pyridin-6-yl)nicotinamide] | A (Category A: A ≥ 75% degradation) | A (Category A: A ≥ 75% degradation) | B (Category B: 50% ≤ B < 75% degradation) | ≥ 7.00
CN1CCC[C@@H]1c1cc2cnc(NC(=O)c3ccc(N4CCC(C#Cc5cccc6c5CN(C5CCC(=O)NC5=O)C6=O)CC4)nc3)cc2[nH]1 (stereo partly drawn) [Example 17, 6-(4-((2-(2,6-dioxopiperidin-3-yl)-1-oxoisoindolin-4-yl)ethynyl)piperidin-1-yl)-N-(2-((R)-1-methylpyrrolidin-2-yl)-1H-pyrrolo[3,2-c]pyridin-6-yl)nicotinamide] | A (Category A: A ≥ 75% degradation) | A (Category A: A ≥ 75% degradation) | A (Category A: A ≥ 75% degradation) | ≥ 7.00
CN1CCC[C@@H]1c1cc2cnc(NC(=O)c3ccc(-c4cnn(CCCCC#Cc5cccc6c5CN(C5CCC(=O)NC5=O)C6=O)c4)cc3)cc2[nH]1 (stereo partly drawn) [Example 59, 4-(1-(6-(2-(2,6-dioxopiperidin-3-yl)-1-oxoisoindolin-4-yl)hex-5-yn-1-yl)-1H-pyrazol-4-yl)-N-(2-((R)-1-methylpyrrolidin-2-yl)-1H-pyrrolo[3,2-c]pyridin-6-yl)benzamide] | A (Category A: A ≥ 75% degradation) | A (Category A: A ≥ 75% degradation) | B (Category B: 50% ≤ B < 75% degradation) | ≥ 7.00
CN1CCC[C@@H]1c1cc2cnc(NC(=O)c3ccc(-c4cnn(CCCC5CCN(c6cccc(C(=O)N[C@H]7CCC(=O)NC7=O)n6)CC5)c4)cc3)cc2[nH]1 [Example 60, N—((S)-2,6-dioxopiperidin-3-yl)-6-(4-(3-(4-(4-((2-((R)-1-methylpyrrolidin-2-yl)-1H-pyrrolo[3,2-c]pyridin-6-yl)carbamoyl)phenyl)-1H-pyrazol-1-yl)propyl)piperidin-1-yl)picolinamide] | A (Category A: A ≥ 75% degradation) | A (Category A: A ≥ 75% degradation) | A (Category A: A ≥ 75% degradation) | ≥ 7.00
CN1CCC[C@@H]1c1cc2cnc(NC(=O)c3ccc(-c4cnn(CCOC5CCN(c6cccc(C(=O)N[C@H]7CCC(=O)NC7=O)n6)CC5)c4)cc3)cc2[nH]1 [Example 61, N—((S)-2,6-dioxopiperidin-3-yl)-6-(4-(2-(4-(4-((2-((R)-1-methylpyrrolidin-2-yl)-1H-pyrrolo[3,2-c]pyridin-6-yl)carbamoyl)phenyl)-1H-pyrazol-1-yl)ethoxy)piperidin-1-yl)picolinamide] | A (Category A: A ≥ 75% degradation) | A (Category A: A ≥ 75% degradation) | B (Category B: 50% ≤ B < 75% degradation) | ≥ 7.00
CN1CCC[C@@H]1c1cc2cnc(NC(=O)c3cnc(N4CCC(C#Cc5cccc6c5CN(C5CCC(=O)NC5=O)C6=O)CC4)nc3)cc2[nH]1 (stereo partly drawn) [Example 65, 2-(4-((2-(2,6-dioxopiperidin-3-yl)-1-oxoisoindolin-4-yl)ethynyl)piperidin-1-yl)-N-(2-((R)-1-methylpyrrolidin-2-yl)-1H-pyrrolo[3,2-c]pyridin-6-yl)pyrimidine-5-carboxamide] | B (Category B: 50% ≤ B < 75% degradation) | B (Category B: 50% ≤ B < 75% degradation) | B (Category B: 50% ≤ B < 75% degradation) | ≥ 7.00
CN1CCC[C@@H]1c1cc2cnc(NC(=O)c3ccc(OCCC4CCN(c5cccc6c5C(=O)N(C5CCC(=O)NC5=O)C6=O)CC4)cc3)cc2[nH]1 (stereo partly drawn) [Example 82, 4-(2-(1-(2-(2,6-dioxopiperidin-3-yl)-1,3-dioxoisoindolin-4-yl)piperidin-4-yl)ethoxy)-N-(2-((R)-1-methylpyrrolidin-2-yl)-1H-pyrrolo[3,2-c]pyridin-6-yl)benzamide] | B (Category B: 50% ≤ B < 75% degradation) | A (Category A: A ≥ 75% degradation) | A (Category A: A ≥ 75% degradation) | ≥ 7.00
CN1CCC[C@@H]1c1cc2cnc(NC(=O)c3ccc(OCCC4CCN(c5ccc6c(c5)C(=O)N(C5CCC(=O)NC5=O)C6=O)CC4)cc3)cc2[nH]1 (stereo partly drawn) [Example 83, 4-(2-(1-(2-(2,6-dioxopiperidin-3-yl)-1,3-dioxoisoindolin-5-yl)piperidin-4-yl)ethoxy)-N-(2-((R)-1-methylpyrrolidin-2-yl)-1H-pyrrolo[3,2-c]pyridin-6-yl)benzamide] | A (Category A: A ≥ 75% degradation) | A (Category A: A ≥ 75% degradation) | B (Category B: 50% ≤ B < 75% degradation) | ≥ 7.00

Results, then the compound that gave them:

MLLT1% Degradation @ 0.01 μM (MLLT1) | MLLT1% Degradation @ 0.1 μM (MLLT1) | MLLT1% Degradation @ 1 μM (MLLT1) | pIC50 (MV4-11 cells) | SMILES
A (Category A: A ≥ 75% degradation) | A (Category A: A ≥ 75% degradation) | A (Category A: A ≥ 75% degradation) | ≥ 7.00 | CN1CCC[C@@H]1c1cc2cnc(NC(=O)c3ccc(OCC#Cc4cccc5c4n(C)c(=O)n5C4CCC(=O)NC4=O)cc3)cc2[nH]1 (stereo partly drawn) [Example 66, 4-((3-(1-(2,6-dioxopiperidin-3-yl)-3-methyl-2-oxo-2,3-dihydro-1H-benzo[d]imidazol-4-yl)prop-2-yn-1-yl)oxy)-N-(2-((R)-1-methylpyrrolidin-2-yl)-1H-pyrrolo[3,2-c]pyridin-6-yl)benzamide]
A (Category A: A ≥ 75% degradation) | A (Category A: A ≥ 75% degradation) | A (Category A: A ≥ 75% degradation) | ≥ 7.00 | CN1CCC[C@@H]1c1cc2cnc(NC(=O)c3ccc(N4CCC(c5ccc(-c6cccc7c6CN(C6CCC(=O)NC6=O)C7=O)cc5)CC4)nc3)cc2[nH]1 (stereo partly drawn) [Example 67, 6-(4-(4-(2-(2,6-dioxopiperidin-3-yl)-1-oxoisoindolin-4-yl)phenyl)piperidin-1-yl)-N-(2-((R)-1-methylpyrrolidin-2-yl)-1H-pyrrolo[3,2-c]pyridin-6-yl)nicotinamide]
A (Category A: A ≥ 75% degradation) | A (Category A: A ≥ 75% degradation) | A (Category A: A ≥ 75% degradation) | ≥ 7.00 | CN1CCC[C@@H]1c1cc2cnc(NC(=O)c3ccc(N4CCC(C5CCN(c6cccc7c6CN(C6CCC(=O)NC6=O)C7=O)CC5)CC4)nc3)cc2[nH]1 (stereo partly drawn) [Example 75, 6-(1′-(2-(2,6-dioxopiperidin-3-yl)-1-oxoisoindolin-4-yl)-[4,4′-bipiperidin]-1-yl)-N-(2-((R)-1-methylpyrrolidin-2-yl)-1H-pyrrolo[3,2-c]pyridin-6-yl)nicotinamide]
